US20230263822A1, “MODULATION OF FACTOR 11 EXPRESSION” (Ionis Pharmaceuticals, Inc., priority 2008, published 2023)
Like-named read-outs stand apart in the source and are kept apart here.

How the values were obtained:
[1] = mouse, in vivo, sc, 50 mg/kg
[2] = mouse, in vivo, sc, 50 mg/kg; remark: listed apart in the source
[3] = mouse, in vivo, sc, 50 mg/kg; remark: listed apart in the source
[4] = rat, in vivo, sc, 50 mg/kg
[5] = rat, in vivo, sc, 50 mg/kg; remark: listed apart in the source
[6] = rat, in vivo, sc, 50 mg/kg; remark: listed apart in the source

Substance | ALT [1] [IU/L] | AST [1] [IU/L] | Bilirubin [1] [mg/dL] | Cholesterol [1] [mg/dL] | BUN [2] [mg/dL] | HCT [3] [%] | Lymphocyte [3] [cells/μL] | Neutrophil [3] [cells/μL] | Platelets [3] | RBC [3] | WBC [3] | hemoglobin [3] [g/dL] | monocytes [3] [cells/μL] | ALT [4] [IU/L] | AST [4] [IU/L] | Albumin [4] | Bilirubin [4] [mg/dL] | BUN [5] [mg/dL] | Creatinine [5] [mg/dL] | Total urine protein [5] [mg/dL] | other results
ISIS 416856: MOE gapmer, nucleobases 1275 to 1318 of SEQ ID NO: 1 (Table 8) (antisense GGCATTGGTGCACAGTTTCT; MOE gapmer, wing and gap sizes not given here) | 130 | 129 | 0.23 | 109 | 21 | 47 | 3622 | 1292 | 753 10^3/μL | 9 10^6/μL | 5 10^3/μL | 14 | 151 | 123 | 222 | 4 | 0.13 | 23 | 48 | 128 | Urine protein/creatinine ratio [5]: 2.7; HCT [6]: 43%; Lymphocyte [6]: 14328; Neutrophil [6]: 3280; Platelets [6]: 740; RBC [6]: 7.7 10^6/μL; WBC [6]: 19 10^3/μL; hemoglobin [6]: 14.1 g/dL
ISIS 416859: MOE gapmer, nucleobases 1275 to 1318 of SEQ ID NO: 1 (Table 8) (antisense GACGGCATTGGTGCACAGTT; MOE gapmer, wing and gap sizes not given here) | 214 | 293 | 0.20 | 160 | 18 | 49 | 4363 | 1561 | 826 10^3/μL | 10 10^6/μL | 6 10^3/μL | 15 | 229 | 114 | 206 | 5 | 0.21 | 24 | 44 | 144 | Urine protein/creatinine ratio [5]: 3.3; HCT [6]: 45%; Lymphocyte [6]: 14323; Neutrophil [6]: 1414; Platelets [6]: 853; RBC [6]: 7.8 10^6/μL; WBC [6]: 16 10^3/μL; hemoglobin [6]: 14.0 g/dL
ISIS 416860: MOE gapmer, nucleobases 1275 to 1318 of SEQ ID NO: 1 (Table 8) (antisense CGGACGGCATTGGTGCACAG; MOE gapmer, wing and gap sizes not given here) | 189 | 160 | 0.23 | 152 | 25 | 51 | 4889 | 1291 | 937 10^3/μL | 10 10^6/μL | 7 10^3/μL | 15 | 161 | 70 | 157 | 4 | 0.15 | 23 | 58 | 242 | Urine protein/creatinine ratio [5]: 4.6; HCT [6]: 45%; Lymphocyte [6]: 13986; Neutrophil [6]: 1841; Platelets [6]: 669; RBC [6]: 7.8 10^6/μL; WBC [6]: 17 10^3/μL; hemoglobin [6]: 14.1 g/dL
